Laboratory results published in US20230066946A1, “1,5-DIPHENYLPYRAZOLYL-3-OXYALKYL ACIDS AND 1-PHENYL-5-THIENYLPYRAZOLYL-3-OXYALKYL ACIDS AND THE USE THEREOF FOR CONTROL OF UNWANTED PLANT GROWTH” (Bayer Aktiengesellschaft, priority 2019, published 2023).

Experiments:
[1] = test system: ECHCG; experiment: Pre-emergence herbicidal action against ECHCG; assay type: in vivo, Echinochloa crus-galli; details: scored visually after about 3 weeks vs untreated controls, 100% = plants have died, 0% = like control plants
Summary of the method: (§1)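 Weed seeds were sown in sandy loam soil in pots and covered; compounds formulated as WP or EC were sprayed onto the covering soil as aqueous suspension/emulsion with 0.5% additive at 600 L/ha water. Application rate 1280 or 320 g/ha. Greenhouse grown; visual % activity vs untreated controls after about 3 weeks.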

[2] = test system: SETVI; experiment: Pre-emergence herbicidal action against SETVI; assay type: in vivo, Setaria viridis; details: 1280 g/ha, scored visually after about 3 weeks vs untreated controls
Summary of the method: as §1

[3] = test system: AMARE; experiment: Pre-emergence herbicidal action against AMARE; assay type: in vivo, Amaranthus retroflexus; details: scored visually after about 3 weeks vs untreated controls; for Pre-emergence action at 320 g/ha against AMARE in %: 100% = plants have died, 0% = like control plants; for Pre-emergence action against AMARE in %: 1280 g/ha
Summary of the method: as §1

[4] = test system: POLCO; experiment: Pre-emergence herbicidal action against POLCO; assay type: in vivo, Polygonum convolvulus; details: 320 g/ha, scored visually after about 3 weeks vs untreated controls
From the text: (§2) Seeds of mono- and dicotyledonous weed plants are placed in plastic pots in sandy loam soil (doubly sown with one species each of mono- or dicotyledonous weed plants per pot) and covered with soil. The compounds of the invention, formulated in the form of wettable powders (WP) or as emulsion concentrates (EC), are then applied onto the surface of the covering soil as aqueous suspension or emulsion with addition of 0.5% additive at a water application rate equivalent to 600 litres per hectare. After the treatment, the pots are placed in a greenhouse and kept under good growth conditions for the trial plants. After about 3 weeks, the effect of the preparations is scored visually in comparison with untreated controls as percentages. For example, 100% activity=the plants have died, 0% activity=like control plants. [table] Tables 4.1-4.15 below show the effects of selected compounds of the general formula (I) according to Tables 1 to 3 on various harmful plants at an application rate corresponding to 1280 or 320 g/ha, which have been obtained by the aforementioned experimental method.

[5] = test system: STEME; experiment: Pre-emergence herbicidal action against STEME; assay type: in vivo, Stellaria media; details: scored visually after about 3 weeks vs untreated controls
Summary of the method: as §1

[6] = test system: VERPE; experiment: Pre-emergence herbicidal action against VERPE; assay type: in vivo, Veronica persica; details: 320 g/ha, scored visually after about 3 weeks vs untreated controls
Summary of the method: as §1

[7] = test system: ECHCG; experiment: Post-emergence herbicidal action against ECHCG; assay type: in vivo, Echinochloa crus-galli; details: 1280 g/ha, post-emergence at one-leaf stage, rated visually after about 3 weeks vs untreated controls
Summary of the method: (§3)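 Each pot held twin-sown weeds in sandy loam, treated post-emergence 2 to 3 weeks after sowing at the one-leaf stage. Compound was given as a foliar spray at 1280 or 320 g/ha in 600 litres per hectare water with 0.5% additive. Visual scoring against untreated controls followed after about 3 weeks.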

[8] = test system: AMARE; experiment: Post-emergence herbicidal action against AMARE; assay type: in vivo, Amaranthus retroflexus; details: visual rating about 3 weeks after treatment
Summary of the method: as §3

[9] = test system: MATIN; experiment: Post-emergence herbicidal action against MATIN; assay type: in vivo, Matricaria inodora; details: visual rating about 3 weeks after treatment
Summary of the method: as §3

[10] = test system: PHBPU; experiment: Post-emergence herbicidal action against PHBPU; assay type: in vivo, Pharbitis purpurea; details: 320 g/ha, visual rating about 3 weeks after treatment
Summary of the method: as §3

[11] = test system: POLCO; experiment: Post-emergence herbicidal action against POLCO; assay type: in vivo, Polygonum convolvulus; details: 320 g/ha, visual rating about 3 weeks after treatment
Protocol: (§4) [table] Seeds of mono- and dicotyledonous weed plants are placed in plastic pots in sandy loam soil (twin sowing with one species each of mono- or dicotyledonous weed plants per pot), covered with soil and cultivated in a greenhouse under controlled growth conditions. 2 to 3 weeks after sowing, the test plants are treated at the one-leaf stage. The compounds of the invention, formulated in the form of wettable powders (WP) or as emulsion concentrates (EC), are applied to the green parts of the plants as aqueous suspension or emulsion with addition of 0.5% additive at a water application rate equivalent to 600 litres per hectare. After the test plants have been kept in the greenhouse under optimum growth conditions for about 3 weeks, the activity of the preparations is rated visually in comparison to untreated controls. For example, 100% activity=the plants have died, 0% activity=like control plants. Tables 5.1-5.16 below show the effects of selected compounds of the general formula (I) according to Tables 1 to 3 on various harmful plants at an application rate corresponding to 1280 or 320 g/ha, which have been obtained by the aforementioned experimental method.

[12] = test system: STEME; experiment: Post-emergence herbicidal action against STEME; assay type: in vivo, Stellaria media; details: visual rating about 3 weeks after treatment
Summary of the method: as §3

[13] = test system: VIOTR; experiment: Post-emergence herbicidal action against VIOTR; assay type: in vivo, Viola tricolor; details: 320 g/ha, visual rating about 3 weeks after treatment
Summary of the method: as §3

[14] = test system: VERPE; experiment: Post-emergence herbicidal action against VERPE; assay type: in vivo, Veronica persica; details: 320 g/ha, visual rating about 3 weeks after treatment
Summary of the method: as §3

[15] = test system: HORMU; experiment: Post-emergence herbicidal action against HORMU; assay type: in vivo, Hordeum murinum; details: 320 g/ha, visual rating about 3 weeks after treatment
Protocol: as §4

[16] = test system: harmful plants; experiment: Post-emergence herbicidal action, summary of Tables 5.1-5.16; assay type: in vivo; details: result in words
Protocol: as §4, with “Seeds” for “[table] Seeds”, “method. As the results from Tables 5.1-5.16 show, compounds of the invention have good herbicidal post-emergence efficacy against a broad spectrum of weed grasses and weeds. […] For example, compounds Nos. I-002, I-006, I-022, I-056 and I-072 applied by the post-emergence method have very good herbicidal action (80% to 100% herbicidal action) against harmful plants such as Alopecurus myosuroides, Amaranthus retroflexus, Matricaria inodora, Setaria viridis, Pharbitis purpurea and Stellaria media at an application rate of 1.28 kg of active substance or less per hectare.” for “method.”

[17] = test system: SETVI; experiment: Post-emergence herbicidal action against SETVI; assay type: in vivo, Setaria viridis; details: 1280 g/ha, post-emergence at one-leaf stage, rated visually after about 3 weeks vs untreated controls
Summary of the method: as §3

[18] = test system: MATIN; experiment: Pre-emergence herbicidal action against MATIN; assay type: in vivo, Matricaria inodora; details: 1280 g/ha, scored visually after about 3 weeks vs untreated controls
From the text: as §2

[19] = test system: VIOTR; experiment: Pre-emergence herbicidal action against VIOTR; assay type: in vivo, Viola tricolor; details: 1280 g/ha, scored visually after about 3 weeks vs untreated controls
From the text: as §2

[20] = test system: ALOMY; experiment: Post-emergence herbicidal action against ALOMY; assay type: in vivo, Alopecurus myosuroides; details: 1280 g/ha, post-emergence at one-leaf stage, rated visually after about 3 weeks vs untreated controls
Protocol: as §4

| SMILES | Pre-emergence action at 1280 g/ha against ECHCG in % [1] [%] | Pre-emergence action against SETVI in % [2] [%] | Pre-emergence action at 320 g/ha against AMARE in % [3] [%] | Pre-emergence action against AMARE in % [3] [%] | Pre-emergence action against POLCO in % [4] [%] | Pre-emergence action against STEME in % ([5]; 320 g/ha) [%] | Pre-emergence action against STEME in % ([5]; 1280 g/ha) [%] | Pre-emergence action against VERPE in % [6] [%] | Post-emergence action against ECHCG in % [7] [%] | Post-emergence action against AMARE in % ([8]; 320 g/ha) [%] | Post-emergence action against AMARE in % ([8]; 1280 g/ha) [%] | Post-emergence action against MATIN in % ([9]; 1280 g/ha) [%] | Post-emergence action against PHBPU in % [10] [%] | Post-emergence action against POLCO in % [11] [%] | Post-emergence action against STEME in % ([12]; 320 g/ha) [%] | Post-emergence action against STEME in % ([12]; 1280 g/ha) [%] | Post-emergence action against VIOTR in % [13] [%] | Post-emergence action against VERPE in % [14] [%] | Post-emergence action against HORMU in % [15] [%] | herbicidal efficacy against harmful plants when applied post-emergence [16] | also measured |
| --- | --- | --- | --- | --- | --- | --- | --- | --- | --- | --- | --- | --- | --- | --- | --- | --- | --- | --- | --- | --- | --- |
| COC(=O)COc1nn(-c2ccccc2F)c(-c2ccc(F)c(F)c2)c1Br [I-055] | 100 | 100 | 100 | 100 | 90 | 100 | 100 | 90 | 100 | 90 | 90 | 100 | 80 | 80 | 80 | 100 | 100 | 80 | 80 | – | – |
| COC(=O)COc1nn(-c2ccccc2)c(-c2ccc(F)cc2)c1C#N [I-014] | – | – | 100 | – | – | – | – | 100 | – | 80 | – | – | 80 | 80 | 80 | – | – | – | – | very good herbicidal efficacy | – |
| O=C(O)COc1nn(-c2c(F)cccc2F)c(-c2ccc(F)c(F)c2)c1Br [I-137] | 100 | 100 | 90 | 100 | 100 | 90 | 100 | 90 | 100 | 80 | 90 | 90 | 90 | 90 | 90 | 100 | 80 | 90 | 80 | – | Post-emergence action against SETVI in % [17]: 90%; Post-emergence action against MATIN in % ([9]; 320 g/ha): 80% |
| COC(=O)[C@H](C)Oc1nn(-c2ccccc2)c(-c2ccc(F)cc2)c1C#N [I-141] | 100 | 100 | 90 | 100 | – | 80 | 90 | – | 100 | 90 | 90 | 90 | – | – | 90 | 90 | 90 | – | 80 | – | Post-emergence action against MATIN in % ([9]; 320 g/ha): 80% |
| COC(=O)COc1nn(-c2cccc(Cl)c2)c(-c2cccc(F)c2)c1C#N [I-046] | – | – | 90 | 90 | – | – | – | – | – | – | 80 | 80 | 80 | – | 80 | 80 | 80 | 80 | – | – | Pre-emergence action against MATIN in % [18]: 90%; Pre-emergence action against VIOTR in % [19]: 90%; Post-emergence action against ALOMY in % [20]: 80% |
| CCOC(=O)COc1nn(-c2ccccc2F)c(-c2ccccc2)c1[N+](=O)[O-] [I-075] | – | – | – | – | 80 | 80 | – | – | – | – | – | – | 90 | 80 | – | – | 100 | 80 | 80 | – | Post-emergence action against MATIN in % ([9]; 320 g/ha): 80% |
| C1COCCN1.O=C(O)COc1nn(-c2cccc(F)c2)c(-c2ccccc2)c1I [II-04] | 100 | – | – | 100 | – | – | 100 | – | – | – | – | – | – | – | – | 100 | – | – | – | very good herbicidal efficacy | – |
| COC(=O)CNC(=O)C(C)Oc1nn(-c2ccccc2)c(-c2ccc(F)cc2)c1Cl (stereo not drawn) [III-058] | 90 | 90 | – | 100 | – | – | 100 | – | – | – | 90 | 100 | – | – | – | 100 | – | – | – | very good herbicidal efficacy | Post-emergence action against SETVI in % [17]: 100% |
